Data as given in US4321265A, “7α-Methoxycephalosporins” (Toyama Chemical Co., Ltd., priority 1977, dated 1982).
In brackets after ≈: the same amount, converted by molar mass.

Key:
Experiment in all cases: Minimum inhibitory concentration (MIC), Heart Infusion agar
Type in all cases: cell-based
Ser. marcescens W-35 = settings: Serratia marcescens, W35, 20 h, Ser. marcescens W-35; 10^6 cells/ml; 20 hours, 37° C. (Table 1); read-out: minimum inhibitory concentration (MIC)
Experimental: (§1) Antibacterial activities of the representative compounds (Ib) of the 7α-methoxycephalosporins according to this invention are shown in Table 1. [drawing 20]
The figures given in Table 1 represent the minimum inhibitory concentration (MIC in mcg/ml) of each compound, which was determined according to the method described in "Chemotherapy (Society of Chemotherapy, Japan), Vol. 16, 98-99 (1968)": A culture obtained by cultivating the test bacterium in a Heart Infusion broth (Eiken Kagaku Co.) was inoculated into a Heart Infusion agar medium (Eiken Kagaku Co.). After 20 hours of the incubation at 37° C., the growth of the bacterium was inspected to determine the minimum inhibitory concentration (MIC in mcg/ml). […]
(§2) (1) Minimum inhibitory concentration (MIC in mcg/ml).

[1] = system: C. freundii GN-346 (Cephalosporinase-producing bacterium); settings: Citrobacter freundii, GN346; C. freundii GN-346; 10^6 cells/ml; 20 hours, 37° C.; read-out: minimum inhibitory concentration (MIC)
Experimental: as §1
(§3) The figures given in Table 1 represent the minimum inhibitory concentration (MIC in mcg/ml) of each compound, which was determined according to the method described in "Chemotherapy (Society of Chemotherapy, Japan), Vol. 16, 98-99 (1968)": A culture obtained by cultivating the test bacterium in a Heart Infusion broth (Eiken Kagaku Co.) was inoculated into a Heart Infusion agar medium (Eiken Kagaku Co.). After 20 hours of the incubation at 37° C., the growth of the bacterium was inspected to determine the minimum inhibitory concentration (MIC in mcg/ml). The inoculation rate of the bacterium was 10^4 cells/plate (10^6 cells/ml).
as §2

Ser. marcescens IID620 = settings: Serratia marcescens; Ser. marcescens IID620; 10^6 cells/ml; 20 hours, 37° C.; read-out: minimum inhibitory concentration (MIC)
Experimental: as §1, §3, §2

Ser. marcescens W-8 = settings: Serratia marcescens, W8; Ser. marcescens W-8; 10^6 cells/ml; 20 hours, 37° C.; read-out: minimum inhibitory concentration (MIC)
Experimental: as §1, §3, §2

K. pneumoniae Y-50 = settings: Klebsiella pneumoniae, Y50; K. pneumoniae Y-50; 10^6 cells/ml; 20 hours, 37° C.; read-out: minimum inhibitory concentration (MIC)
Experimental: as §1, §3, §2

Ps. aeruginosa S-68 = settings: Pseudomonas aeruginosa, S68; Ps. aeruginosa S-68; 10^6 cells/ml; 20 hours, 37° C.; read-out: minimum inhibitory concentration (MIC)
Experimental: as §1, §3, §2

Ps. aeruginosa IFO-3445 = settings: Pseudomonas aeruginosa, IFO3445; Ps. aeruginosa IFO-3445; 10^6 cells/ml; 20 hours, 37° C.; read-out: minimum inhibitory concentration (MIC)
Experimental: as §1, §3, §2

Prot. vulgaris GN-76 = settings: Proteus vulgaris, GN76; Prot. vulgaris GN-76; 10^6 cells/ml; 20 hours, 37° C.; read-out: minimum inhibitory concentration (MIC)
Experimental: as §1, §3, §2

Klebsiella spp. Y-72 = settings: SPP.Y72; Klebsiella spp. Y-72; 10^6 cells/ml; 20 hours, 37° C.; read-out: minimum inhibitory concentration (MIC)
Experimental: as §1, §3, §2

Citrobacter N-7 = settings: N7; Citrobacter N-7; 10^6 cells/ml; 20 hours, 37° C.; read-out: minimum inhibitory concentration (MIC)
Experimental: as §1, §3, §2

[2] = system: S. aureus F-19 (Penicillinase-producing bacterium); settings: Staphylococcus aureus; S. aureus F-19; 10^6 cells/ml; 20 hours, 37° C.; read-out: minimum inhibitory concentration (MIC)
Experimental: as §1, §3, §2

[3] = system: Acinetobacter caloaceticus A-6; settings: A6; Acinetobacter caloaceticus A-6; 10^6 cells/ml; 20 hours, 37° C.; read-out: minimum inhibitory concentration (MIC)
Experimental: as §1, §3, §2

Ent. cloacae IID977 = settings: Enterobacter cloacae; Ent. cloacae IID977; 10^6 cells/ml; 20 hours, 37° C.; read-out: minimum inhibitory concentration (MIC)
Experimental: as §1, §3, §2

E. coli NIHJ = settings: Escherichia coli; E. coli NIHJ; 10^6 cells/ml; 20 hours, 37° C.; read-out: minimum inhibitory concentration (MIC)
Experimental: as §1, §3, §2

Compound	MIC (Ser. marcescens W-35) [µg/mL]	MIC [1] [µg/mL]	MIC (Ser. marcescens IID620) [µg/mL]	MIC (Ser. marcescens W-8) [µg/mL]	MIC (K. pneumoniae Y-50) [µg/mL]	MIC (Ps. aeruginosa S-68) [µg/mL]	MIC (Ps. aeruginosa IFO-3445) [µg/mL]	MIC (Prot. vulgaris GN-76) [µg/mL]	MIC (Klebsiella spp. Y-72) [µg/mL]	MIC (Citrobacter N-7) [µg/mL]	MIC [2] [µg/mL]	MIC [3] [µg/mL]	MIC (Ent. cloacae IID977) [µg/mL]	MIC (E. coli NIHJ) [µg/mL]
CCN1CCN(C(=O)NC(C(=O)N[C@]2(OC)C(=O)N3C(C(=O)O)=C(CSc4nncs4)CS[C@@H]32)c2cccs2)C(=O)C1=O (stereo partly drawn)	12.5 (≈ 18.7 µM)	100 (≈ 150 µM)	0.78 (≈ 1.17 µM)	25 (≈ 37.4 µM)	0.39 (≈ 0.584 µM)	25 (≈ 37.4 µM)	25 (≈ 37.4 µM)	0.78 (≈ 1.17 µM)	1.56 (≈ 2.34 µM)	12.5 (≈ 18.7 µM)	6.25 (≈ 9.36 µM)	12.5 (≈ 18.7 µM)	100 (≈ 150 µM)	≤ 0.1
CCN1CCN(C(=O)NC(C(=O)N[C@]2(OC)C(=O)N3C(C(=O)O)=C(CSc4nnnn4C)CS[C@@H]32)c2cccs2)C(=O)C1=O (stereo partly drawn) [drawing 22]	6.25 (≈ 9.39 µM)	25 (≈ 37.6 µM)	0.78 (≈ 1.17 µM)	25 (≈ 37.6 µM)	0.39 (≈ 0.586 µM)	12.5 (≈ 18.8 µM)	12.5 (≈ 18.8 µM)	0.2 (≈ 0.3 µM)	6.25 (≈ 9.39 µM)	0.78 (≈ 1.17 µM)	3.13 (≈ 4.7 µM)	12.5 (≈ 18.8 µM)	25 (≈ 37.6 µM)	≤ 0.1
CCN1CCN(C(=O)NC(C(=O)N[C@]2(OC)C(=O)N3C(C(=O)O)=C(CSc4nnnn4C)CS[C@@H]32)C2=CCC=CC2)C(=O)C1=O (stereo partly drawn)	50 (≈ 75.6 µM)	25 (≈ 37.8 µM)	0.78 (≈ 1.18 µM)	100 (≈ 151 µM)	0.78 (≈ 1.18 µM)	25 (≈ 37.8 µM)	12.5 (≈ 18.9 µM)	3.13 (≈ 4.73 µM)	12.5 (≈ 18.9 µM)	6.25 (≈ 9.45 µM)	3.13 (≈ 4.73 µM)	6.25 (≈ 9.45 µM)	25 (≈ 37.8 µM)	≤ 0.1
CCN1CCN(C(=O)NC(C(=O)N[C@]2(OC)C(=O)N3C(C(=O)O)=C(CSc4nnnn4CC(C)=O)CS[C@@H]32)c2cccs2)C(=O)C1=O (stereo partly drawn)	25 (≈ 35.3 µM)	25 (≈ 35.3 µM)	0.2 (≈ 0.283 µM)	50 (≈ 70.6 µM)	0.39 (≈ 0.551 µM)	25 (≈ 35.3 µM)	25 (≈ 35.3 µM)	0.78 (≈ 1.1 µM)	6.25 (≈ 8.83 µM)	6.25 (≈ 8.83 µM)	6.25 (≈ 8.83 µM)	25 (≈ 35.3 µM)	50 (≈ 70.6 µM)	≤ 0.1
CCN1CCN(C(=O)NC(C(=O)N[C@]2(OC)C(=O)N3C(C(=O)O)=C(CSc4nnnn4CC(N)=O)CS[C@@H]32)c2ccco2)C(=O)C1=O (stereo partly drawn)	6.25 (≈ 9.02 µM)	–	≤ 0.1	–	0.2 (≈ 0.289 µM)	–	12.5 (≈ 18 µM)	1.56 (≈ 2.25 µM)	–	–	6.25 (≈ 9.02 µM)	–	25 (≈ 36.1 µM)	≤ 0.1
C=Cn1nnnc1SCC1=C(C(=O)O)N2C(=O)[C@](NC(=O)C(NC(=O)N3CCN(CC)C(=O)C3=O)c3ccco3)(OC)[C@H]2SC1 (stereo partly drawn)	–	–	≤ 0.1	–	0.2 (≈ 0.302 µM)	–	25 (≈ 37.8 µM)	3.13 (≈ 4.73 µM)	–	–	3.13 (≈ 4.73 µM)	–	25 (≈ 37.8 µM)	≤ 0.1
CCN1CCN(C(=O)NC(C(=O)N[C@]2(OC)C(=O)N3C(C(=O)O)=C(CSc4nnnn4CCN)CS[C@@H]32)c2cccs2)C(=O)C1=O (stereo partly drawn)	6.25 (≈ 9 µM)	25 (≈ 36 µM)	0.2 (≈ 0.288 µM)	50 (≈ 72 µM)	0.78 (≈ 1.12 µM)	12.5 (≈ 18 µM)	12.5 (≈ 18 µM)	0.78 (≈ 1.12 µM)	3.13 (≈ 4.51 µM)	3.13 (≈ 4.51 µM)	6.25 (≈ 9 µM)	12.5 (≈ 18 µM)	50 (≈ 72 µM)	≤ 0.1
CCN1CCN(C(=O)NC(C(=O)N[C@]2(OC)C(=O)N3C(C(=O)O)=C(CSc4nnnn4CCO)CS[C@@H]32)c2cccs2)C(=O)C1=O (stereo partly drawn)	12.5 (≈ 18 µM)	12.5 (≈ 18 µM)	0.2 (≈ 0.287 µM)	50 (≈ 71.9 µM)	0.39 (≈ 0.561 µM)	12.5 (≈ 18 µM)	12.5 (≈ 18 µM)	0.39 (≈ 0.561 µM)	1.56 (≈ 2.24 µM)	1.56 (≈ 2.24 µM)	3.13 (≈ 4.5 µM)	6.25 (≈ 8.98 µM)	25 (≈ 35.9 µM)	≤ 0.1
